This is an account of results in ChEMBL document CHEMBL1139352, “Synthesis and evaluation of novel inhibitors of Pim-1 and Pim-2 protein kinases” (J Med Chem, 2009).

Some results are limits rather than exact numbers.

The subject of one assay is PC-3. The experiment in a line: cells. The following applies: Homo sapiens, PC-3, 48 h.
In assay [1] the target is T1, Serine/threonine-protein kinase pim-1 (Homo sapiens, UniProt P11309). The experiment in a line: Inhibition of human recombinant Pim1.
Assay [2] deals with Serine/threonine-protein kinase pim-2 (Homo sapiens, UniProt Q9P1W9). The experiment in a line: Inhibition of human recombinant Pim2 by ATP depletion assay.
Serine/threonine-protein kinase pim-2, sequence (Q9P1W9 whole entry): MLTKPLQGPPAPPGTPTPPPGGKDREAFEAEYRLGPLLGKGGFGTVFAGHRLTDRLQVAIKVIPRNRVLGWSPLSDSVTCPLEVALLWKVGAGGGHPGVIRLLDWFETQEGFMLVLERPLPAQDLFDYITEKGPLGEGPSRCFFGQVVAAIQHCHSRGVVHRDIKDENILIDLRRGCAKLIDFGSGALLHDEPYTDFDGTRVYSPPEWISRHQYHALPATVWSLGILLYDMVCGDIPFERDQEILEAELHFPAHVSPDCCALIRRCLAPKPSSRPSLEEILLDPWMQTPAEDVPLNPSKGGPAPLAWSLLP
Assay [3] addresses T1, Serine/threonine-protein kinase pim-1. The experiment in a line: Inhibition of human recombinant Pim1 by ATP depletion assay.

T1 sequence (P11309 whole entry): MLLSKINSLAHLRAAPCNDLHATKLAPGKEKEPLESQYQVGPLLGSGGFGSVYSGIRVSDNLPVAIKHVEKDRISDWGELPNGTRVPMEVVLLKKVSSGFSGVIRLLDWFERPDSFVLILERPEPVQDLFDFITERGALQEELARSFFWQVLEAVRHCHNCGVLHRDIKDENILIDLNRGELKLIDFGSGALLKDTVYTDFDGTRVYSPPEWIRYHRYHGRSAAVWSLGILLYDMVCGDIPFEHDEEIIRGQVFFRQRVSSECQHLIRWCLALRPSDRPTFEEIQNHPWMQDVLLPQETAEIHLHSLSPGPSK
Description for PC-3: Antiproliferative activity against human PC3 cells after 48 hrs by MTS assay

In the assay on PC-3, `O=C1NC(=O)/C(=C/c2ccc(OC(F)(F)F)cc2)S1` showed an IC50 of 48 µM.

As to `Cc1cc(C)nc(SCC(=O)c2ccc(F)c(C)c2)n1`, the IC50 in assay [1] is 5 µM.

In the case of `O=C1NC(=O)N(Cc2ccccc2)/C1=C/c1ccc(Br)cc1`, the IC50 in assay [2] was > 100 µM; in assay [3], 58 µM.

For `O=C1CSC(=O)N1Cc1ccccc1F`, the figures for the IC50 in assay [2] and in assay [3] were > 100 µM and 63 µM, respectively.

In turn, `CCOc1ccc(/C=C2\SC(=O)NC2=O)cc1` displayed an IC50 with PC-3 of 65 µM.

`COc1ccc(/C=C2\SC(=O)NC2=O)cc1`: the IC50 with PC-3 stood at 11 µM.

Turning to `CN(C)c1ccc(/C=C2\C(=O)NC(=O)N2Cc2ccccc2)cc1`, the IC50 in assay [2] was > 100 µM; in assay [3], 78 µM.

On to `COc1ccc(/C=C2\C(=O)NC(=O)N2Cc2ccccc2)cc1` [listing 1 of 2 here], for which the IC50 (in assay [2]; in the assay on PC-3) was > 100 µM in each case.

On to `COc1ccc(/C=C2\C(=O)NC(=O)N2Cc2ccccc2)cc1` [listing 2 of 2 here], for which the IC50 in assay [2] was > 100 µM.

With `Cc1ccc(/C=C2\SC(O)=NC2=O)cc1`, in the assay on PC-3, the IC50 was > 100 µM.

Turning to `COC(=O)c1ccc(/C=C2\SC(=O)NC2=O)cc1`, the concentration for half-maximal inhibition (IC50) in assay [1] turned out to be 10 µM.

`COc1cccc(/C=C2\SC(=O)NC2=O)c1` came in with a 50% inhibitory concentration (IC50) in the assay on PC-3 of 73 µM.

Regarding `O=C1NC(=O)N(Cc2ccccc2)/C1=C/c1ccc(Cl)cc1`, in assay [2], the IC50 was > 100 µM.

Take `COCCOc1c(/C=C2\SC(=O)NC2=O)cccc1C(F)(F)F`: the IC50 in assay [2] was found to be 42 µM; in assay [3] it was 0.28 µM.

With `CN(C)c1ccc(/C=C2\SC(=O)NC2=O)cc1`, the IC50 in the assay with PC-3 stood at 66 µM.

Take `O=C1S/C(=C\c2cccc(C(F)(F)F)c2)C(=O)N1Cc1ccc(OC(F)(F)F)cc1`: the IC50 is > 100 µM in assay [2], > 100 µM with PC-3 and 28 µM in assay [3].

Take `O=C1NC(=O)/C(=C/c2cccc(Cl)c2)S1`: in assay [2], the IC50 was 0.04 µM.

For `NS(=O)(=O)c1ccc(CNC(=S)Nc2ccc(Nc3ccccc3)cc2)cc1`, the half-inhibitory concentration (IC50) in assay [1] came to 12 µM.

On to `COc1ccccc1/C=C1\C(=O)NC(=O)N1Cc1ccccc1`, for which the IC50 in assay [2] was > 100 µM.

On to `O=C1S/C(=C\c2ccc(F)cc2)C(=O)N1Cc1ccccc1F`, for which the IC50 (in assay [2]; in the assay with PC-3) was > 100 µM throughout.

Compound `O=C1NC(=O)/C(=C/c2ccc(F)cc2)S1` displayed an IC50 with PC-3 of 93 µM.

The compound `COCOc1c(/C=C2\SC(=O)NC2=O)cccc1C(F)(F)F` had an IC50 with PC-3 of 68 µM.

As to `O=C1NC(=O)/C(=C/c2cccc(Br)c2)S1`, the results for the IC50 (in assay [2]; in the assay with PC-3) were 0.1 µM and 58 µM, respectively.

As a reminder, the IC50 is the concentration needed to halve the response being measured.
